Experimental data taken from patent publication US11292788B2, “IL-17 and IFN-gamma inhibition for the treatment of autoimmune diseases and chronic inflammation” (Immunic AG, priority 2017, dated 2022).
Read-outs that look alike come from different tables or passages of the source.

What was measured:
IL-17A = assay: Cytokine assay: IL-17A production by human PBMC stimulated with PHA; type: cell-based; details: Homo sapiens, PBMC, IC50 class, read-out: IL-17A Inhib.
Method in brief: (§1)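 Healthy-donor PBMC, isolated on Histopaque-1077, were seeded at 1×10^5 cells/well in RPMI1640 with 10% dialyzed heat-inactivated FCS, activated with 2 μg/ml PHA and incubated with compound for 48 hours. Supernatant cytokine was measured by Luminex BioPlex or ELISA. IC50 came from semilogarithmic titration; screening used 10, 1, 0.1 and 0.01 μM.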

IL-17F = assay: Cytokine assay: IL-17F production by human PBMC stimulated with PHA; type: cell-based; details: Homo sapiens, PBMC, IC50 class, read-out: IL-17F Inhib.
Method in brief: as §1

INF-γ = assay: Cytokine assay: INF-γ production by human PBMC stimulated with PHA; type: cell-based; details: Homo sapiens, PBMC, IC50 class, read-out: IFN-gamma Inhib.
Method in brief: as §1

[1] = Microsomal stability: incubation with human liver microsomes, residual parent compound by HPLC-MS/MS; type: in vitro ADME; details: up to 60 min, read-out: t1/2 hLM
Description: Metabolic stability of compounds of the present invention was determined by incubation with human liver microsomes and subsequent determination of residual amount of the respective compound (“parent compound”) by HPLC-MS/MS.
In order to achieve this, in a final reaction volume of 1000 μl, each compound was incubated at a final concentration of 1 μM with 0.5 mg/ml human liver microsomes (HLM Pool 50 Donors, 20 mg/ml, BD Gentest, #452156, LotNr 88114) in 0.1 M Potassium phosphate buffer at pH 7.4, with a cofactor in form of a NADPH regenerating system (Promega, #V9510) according to the manufacturers' specifications. The final DMSO concentration in each sample was 0.4%. The incubation was performed at 37° C. under shaking conditions (Thermomixer, 1400 rpm) for different time intervals up to 60 min. To stop the reaction, for each time point 200 μl of the reaction were taken out and 200 μl ice-cold acetonitrile was added. Then, the samples were centrifuged (4° C., 14000*g for 15 min). The supernatant was analyzed for residual parent compound concentration and scanned for metabolites using HPLC-MS/MS. By using optimized MS methods for each compound, the peak area under curve for the compound specific signal is determined. The change of the peak areas over the assay time of 60 min resemble the remaining parent compound in % of T0. By these points, a balancing line was set. The half-time, as well as the clearance, can then be calculated on the basis of the slope.

[2] = human liver microsomes 0.5 mg/ml, compound 1 μM, pH 7.4, 37° C.
[3] = pH 7.4, human liver microsomes, 1 μM compound, 0.5 mg/ml HLM, 37° C.

IC50 (IL-17A)	IC50 (IL-17F)	IC50 (INF-γ)	half-life at 1 μM [1, 2]	half-life at 1 μM [1, 3]	SMILES
< 50 nM	< 50 nM	< 50 nM	40 to 100 min		Cc1c(-c2onc(-c3c(F)cccc3Cl)c2C(=O)OC2CC2)cnn1[C@H]1C[C@@](C)(O)C1 [Example 61, cyclopropyl 3-(2-chloro-6-fluorophenyl)-5-{5-methyl-1-[3-hydroxy-3-methylcyclobutyl]-1H-pyrazol-4-yl}-1,2-oxazole-4-carboxylate]
50 to 500 nM	50 to 500 nM	< 50 nM	> 100 min		COCc1c(-c2c(F)cccc2Cl)noc1-c1cnn([C@H]2C[C@@](C)(O)C2)c1C(F)(F)F [Example 69, 3-(4-(3-(2-chloro-6-fluorophenyl)-4-(methoxymethyl)isoxazol-5-yl)-5-(trifluoromethyl)-1H-pyrazol-1-yl)-1-methylcyclobutan-1-ol]
< 50 nM	< 50 nM	< 50 nM	10 to 40 min		C[C@@H](O)Cn1ncc(-c2onc(-c3c(F)cccc3Cl)c2COC2CC2)c1C(F)(F)F [Example 85, (2R)-1-(4-(3-(2-chloro-6-fluorophenyl)-4-(cyclopropoxymethyl)isoxazol-5-yl)-5-(trifluoromethyl)-1H-pyrazol-1-yl)propan-2-ol]
< 50 nM	< 50 nM	< 50 nM	> 100 min		C[C@]1(O)C[C@@H](n2ncc(-c3onc(-c4c(F)cccc4Cl)c3COC3CC3)c2C(F)(F)F)C1 [Example 86, 3-(4-(3-(2-chloro-6-fluorophenyl)-4-(cyclopropoxymethyl)isoxazol-5-yl)-5-(trifluoromethyl)-1H-pyrazol-1-yl)-1-methylcyclobutan-1-ol]
< 50 nM	< 50 nM	< 50 nM		2 to 9.99 min	C[C@]1(O)C[C@@H](n2ncc(-c3onc(-c4cccc(OCCN5CCOCC5)c4Cl)c3COC3CC3)c2C(F)(F)F)C1 [Example 92, 3-(4-(3-(2-chloro-3-(2-morpholinoethoxy)phenyl)-4-(cyclopropoxymethyl)isoxazol-5-yl)-5-(trifluoromethyl)-1H-pyrazol-1-yl)-1-methylcyclobutan-1-ol]
< 50 nM	< 50 nM	< 50 nM		40 to 100 min	C[C@@H](O)Cn1ncc(-c2onc(-c3c(F)cccc3Cl)c2-c2ncccn2)c1C(F)(F)F [Example 97, (R)-1-(4-(3-(2-chloro-6-fluorophenyl)-4-(pyrimidin-2-yl)isoxazol-5-yl)-5-(trifluoromethyl)-1H-pyrazol-1-yl)propan-2-ol]
< 50 nM	< 50 nM	< 50 nM		> 100 min	C[C@]1(O)C[C@@H](n2ncc(-c3onc(-c4c(F)cccc4Cl)c3-c3ncccn3)c2C(F)(F)F)C1 [Example 98, 3-(4-(3-(2-chloro-6-fluorophenyl)-4-(pyrimidin-2-yl)isoxazol-5-yl)-5-(trifluoromethyl)-1H-pyrazol-1-yl)-1-methylcyclobutanol]
50 to 500 nM	< 50 nM	< 50 nM		> 100 min	C[C@]1(O)C[C@@H](n2ncc(-c3onc(-c4c(F)cccc4Cl)c3-c3cnccn3)c2C(F)(F)F)C1 [Example 100, 3-{4-[3-(2-chloro-6-fluorophenyl)-4-(pyrazin-2-yl)-1,2-oxazol-5-yl]-5-(trifluoromethyl)-1H-pyrazol-1-yl}-1-methylcyclobutan-1-ol]
< 50 nM	< 50 nM	< 50 nM		> 100 min	COc1cccc(-c2noc(-c3cnn([C@H]4C[C@@](C)(O)C4)c3C(F)(F)F)c2-c2ncccn2)c1Cl [Example 103, 3-{4-[3-(2-chloro-3-methoxyphenyl)-4-(pyrimidin-2-yl)-1,2-oxazol-5-yl]-5-(trifluoromethyl)-1H-pyrazol-1-yl}-1-methylcyclobutan-1-ol]
< 50 nM	< 50 nM	< 50 nM		> 100 min	CC(C)(O)Cn1ncc(-c2onc(-c3c(F)cccc3Cl)c2-c2ncccn2)c1C(F)(F)F [Example 118, 1-{4-[3-(2-chloro-6-fluorophenyl)-4-(pyrimidin-2-yl)-1,2-oxazol-5-yl]-5-(trifluoromethyl)-1H-pyrazol-1-yl}-2-methylpropan-2-ol]
< 50 nM	50 to 500 nM	< 50 nM		> 100 min	COc1cccc(-c2noc(-c3cnn(CCC(C)(C)O)c3C(F)(F)F)c2-c2ncccn2)c1Cl [Example 121, 4-{4-[3-(2-chloro-3-methoxyphenyl)-4-(pyrimidin-2-yl)-1,2-oxazol-5-yl]-5-(trifluoromethyl)-1H-pyrazol-1-yl}-2-methylbutan-2-ol]
< 50 nM	< 50 nM	< 50 nM		> 100 min	COc1cccc(-c2noc(-c3cnn(CCC(C)(C)O)c3C)c2-c2ncccn2)c1Cl [Example 124, 4-{4-[3-(2-chloro-3-methoxyphenyl)-4-(pyrimidin-2-yl)-1,2-oxazol-5-yl]-5-methyl-1H-pyrazol-1-yl}-2-methylbutan-2-ol]
50 to 500 nM	< 50 nM	< 50 nM		> 100 min	COc1ccc(Cl)c(-c2noc(-c3cnn(CCC(C)(C)O)c3C)c2-c2ncccn2)c1Cl [Example 125, 4-{4-[3-(2,6-dichloro-3-methoxyphenyl)-4-(pyrimidin-2-yl)-1,2-oxazol-5-yl]-5-methyl-1H-pyrazol-1-yl}-2-methylbutan-2-ol]
50 to 500 nM	50 to 500 nM	< 50 nM		> 100 min	Cc1c(-c2onc(-c3c(F)cccc3Cl)c2-c2ncccn2)cnn1CCC(C)(C)O [Example 127, 4-{4-[3-(2-chloro-6-fluorophenyl)-4-(pyrimidin-2-yl)-1,2-oxazol-5-yl]-5-methyl-1H-pyrazol-1-yl}-2-methylbutan-2-ol]
< 50 nM	< 50 nM	< 50 nM		2 to 9.99 min	CC(C)(O)CCn1ncc(-c2onc(-c3cccc(OCCN4CCOCC4)c3Cl)c2-c2ncccn2)c1C(F)(F)F [Example 133, 4-[4-(3-{2-chloro-3-[2-(morpholin-4-yl)ethoxy]phenyl}-4-(pyrimidin-2-yl)-1,2-oxazol-5-yl)-5-(trifluoromethyl)-1H-pyrazol-1-yl]-2-methylbutan-2-ol]
< 50 nM	50 to 500 nM	50 to 500 nM		> 100 min	CN(C)CCOc1cccc(-c2noc(-c3cnn(CCC(C)(C)O)c3C(F)(F)F)c2-c2ncccn2)c1Cl [Example 134, 4-[4-(3-{2-chloro-3-[2-(dimethylamino)ethoxy]phenyl}-4-(pyrimidin-2-yl)-1,2-oxazol-5-yl)-5-(trifluoromethyl)-1H-pyrazol-1-yl]-2-methylbutan-2-ol]
50 to 500 nM	50 to 500 nM	< 50 nM		40 to 100 min	CC(C)(O)CCn1ncc(-c2onc(-c3cccc(OCCN4CCCC4)c3Cl)c2-c2ncccn2)c1C(F)(F)F [Example 135, 4-[4-(3-{2-chloro-3-[2-(pyrrolidin-1-yl)ethoxy]phenyl}-4-(pyrimidin-2-yl)-1,2-oxazol-5-yl)-5-(trifluoromethyl)-1H-pyrazol-1-yl]-2-methylbutan-2-ol]
50 to 500 nM	50 to 500 nM	50 to 500 nM		10 to 40 min	CCN(CC)CCOc1cccc(-c2noc(-c3cnn(CCC(C)(C)O)c3C(F)(F)F)c2-c2ncccn2)c1Cl [Example 137, 4-[4-(3-{2-chloro-3-[2-(diethylamino)ethoxy]phenyl}-4-(pyrimidin-2-yl)-1,2-oxazol-5-yl)-5-(trifluoromethyl)-1H-pyrazol-1-yl]-2-methylbutan-2-ol]
< 50 nM	< 50 nM	50 to 500 nM		2 to 9.99 min	CC(C)(O)CCn1ncc(-c2onc(-c3cccc(OCCN4CCS(=O)(=O)CC4)c3Cl)c2-c2ncccn2)c1C(F)(F)F [Example 138, 4-[2-(2-chloro-3-{5-[1-(3-hydroxy-3-methylbutyl)-5-(trifluoromethyl)-1H-pyrazol-4-yl]-4-(pyrimidin-2-yl)-1,2-oxazol-3-yl}phenoxy)ethyl]-thiomorpholine-1,1-dione]

SMILES	IC50 (IL-17A)	IC50 (IL-17F)	IC50 (INF-γ)	half-life at 1 μM [1, 2]	half-life at 1 μM [1, 3]
CC(C)(O)CCn1ncc(-c2onc(-c3cccc(OCCN4CC5(COC5)C4)c3Cl)c2-c2ncccn2)c1C(F)(F)F [Example 139, 4-(4-{3-[2-chloro-3-(2-{2-oxa-6-azaspiro[3.3]heptan-6-yl}ethoxy)phenyl]-4-(pyrimidin-2-yl)-1,2-oxazol-5-yl}-5-(trifluoromethyl)-1H-pyrazol-1-yl)-2-methylbutan-2-ol]	< 50 nM	< 50 nM	50 to 500 nM		10 to 40 min
